From patent US4160829A, “Antibacterial 1,2,4-oxadiazolylacetamido cephalosporins” (Gist-Brocades N.V., priority 1972, dated 1979)
Converted amounts (≈) assume the structure as drawn. Where two headings read alike, the source gives them in different places.

Experiments:
Pseud.aerug. H 10 = experiment: micro serial dilution test; assay type: cell-based; details: read-out: minimal inhibitory concentration (MIC)
Past.multo. A 723 = experiment: micro serial dilution test; assay type: cell-based; details: Pasteurella multocida, read-out: minimal inhibitory concentration (MIC)
Strep.haem. A 266 = experiment: micro serial dilution test; assay type: cell-based, Streptococcus haemolyticus; details: Streptococcus, read-out: minimal inhibitory concentration (MIC)
Shig.equir. T 3 = experiment: micro serial dilution test; assay type: cell-based; details: micro serial dilution (in brackets), about 18 hours, 30° C. or 37° C.; read-out: minimal inhibitory concentration (MIC)
Excerpt: Two drops of a stock solution of the test compound (antibiotic) in a known concentration were brought into the first hole of a test plate with 9 numbered holes with a sterile Pasteur pipette. After rinsing this pipette three times with a physiological NaCl-solution, two drops of a stock solution of the test organism in a culture medium were brought in all the holes except for hole 8. In the first hole, the solution of the tested compound had been half diluted, then by stirring the liquid in the first hole and adding two drops of this mixture to the second hole and so on until hole 8, dilutions of the test compound solution were obtained in geometrical progression. The hole 9 contained no antibiotic and served for checking the growth of the testogranism in a blank medium. The test plate was incubated at 30° C. or 37° C. for about 18 hours.

Bac.Subt.ATCC 6633 = experiment: micro serial dilution test; assay type: cell-based; details: Bacillus subtilis, read-out: minimal inhibitory concentration (MIC)
Bruc.melit. A 488 = experiment: microbe, parasite or virus in culture; assay type: cell-based; details: Brucella melitensis, 18 h, read-out: minimal inhibitory concentration (MIC)
Kleb.pneum. A 809 = experiment: micro serial dilution test; assay type: cell-based; details: Klebsiella pneumoniae, read-out: minimal inhibitory concentration (MIC)
Staph.aureus A 355 = experiment: micro serial dilution test; assay type: cell-based, Staphylococcus aureus; details: Staphylococcus aureus, read-out: minimal inhibitory concentration (MIC)
Prot.morg. 2241 = experiment: micro serial dilution test; assay type: cell-based; details: read-out: minimal inhibitory concentration (MIC)
Pseud.aerug. 2396 = experiment: micro serial dilution test; assay type: cell-based; details: read-out: minimal inhibitory concentration (MIC)
Strep. faec. L 80 = experiment: micro serial dilution test; assay type: cell-based, Streptococcus faecalis; details: Enterococcus faecalis, read-out: minimal inhibitory concentration (MIC)
Prot.mirab. L 93 = experiment: micro serial dilution test; assay type: cell-based; details: Proteus mirabilis, read-out: minimal inhibitory concentration (MIC)
Salm.dubl. P 43 = experiment: micro serial dilution test; assay type: cell-based, Salmonella dublin; details: Salmonella enterica, read-out: minimal inhibitory concentration (MIC)
Haem.infl. A 1030 = experiment: micro serial dilution test; assay type: cell-based; details: 18 h, read-out: minimal inhibitory concentration (MIC)
Staph.aureus A 321 = experiment: micro serial dilution test; assay type: cell-based; details: Staphylococcus aureus, read-out: minimal inhibitory concentration (MIC)
Prot.mirab. H 3 = experiment: micro serial dilution test; assay type: cell-based; details: Proteus mirabilis, read-out: minimal inhibitory concentration (MIC)
[1] = system: Pseud.aerug. Wyeth A 1058; experiment: micro serial dilution test; assay type: cell-based; details: read-out: minimal inhibitory concentration (MIC)
Prot.rettg. A 821 = experiment: micro serial dilution test; assay type: cell-based, Proteus rettgeri; details: Providencia rettgeri, read-out: minimal inhibitory concentration (MIC)
Esch.coli U 20 = experiment: micro serial dilution test; assay type: cell-based; details: Escherichia coli, read-out: minimal inhibitory concentration (MIC)
Dipl.pneum. L 54 = experiment: micro serial dilution test; assay type: cell-based, Diplococcus pneumoniae; details: Streptococcus pneumoniae, read-out: minimal inhibitory concentration (MIC)
[2] = micro serial dilution (in brackets), about 18 hours, 30° C. or 37° C.

Question: Which results are given for `CC1(C)S[C@@H]2[C@H](NC(=O)Cc3ccccc3)C(=O)N2[C@H]1C(=O)O` [Penicillin G]?
Answer: MIC (Pseud.aerug. H 10; [2]): > 100 µg/mL; MIC (Past.multo. A 723; [2]): 0.2 µg/mL (≈ 0.598 µM); MIC (Strep.haem. A 266; [2]): 0.013 µg/mL (≈ 0.0389 µM); MIC (Shig.equir. T 3): 0.25 µg/mL (≈ 0.748 µM); MIC (Bac.Subt.ATCC 6633; ATCC6633, micro serial dilution (in brackets), about 18 hours, 30° C. or 37° C.): 0.006 µg/mL (≈ 0.0179 µM); MIC (Bruc.melit. A 488): 0.25 µg/mL (≈ 0.748 µM); MIC (Kleb.pneum. A 809; [2]): 100 µg/mL (≈ 299 µM); MIC (Staph.aureus A 355; A355, micro serial dilution (in brackets), about 18 hours, 30° C. or 37° C., penicillinase-producing strain): 10 µg/mL (≈ 29.9 µM); MIC (Prot.morg. 2241; [2]): > 100 µg/mL; MIC (Pseud.aerug. 2396; [2]): > 100 µg/mL; MIC (Strep. faec. L 80; [2]): 4 µg/mL (≈ 12 µM); MIC (Prot.mirab. L 93; [2]): 0.5 µg/mL (≈ 1.5 µM); MIC (Salm.dubl. P 43; [2]): 5 µg/mL (≈ 15 µM); MIC (Haem.infl. A 1030; [2]): 0.5 µg/mL (≈ 1.5 µM); MIC (Staph.aureus A 321; A321, micro serial dilution (in brackets), about 18 hours, 30° C. or 37° C.): 0.03 µg/mL (≈ 0.0897 µM); MIC (Prot.mirab. H 3; [2]): 7.5 µg/mL (≈ 22.4 µM); MIC [1, 2]: 100 µg/mL (≈ 299 µM); MIC (Prot.rettg. A 821; [2]): 25 µg/mL (≈ 74.8 µM); MIC (Esch.coli U 20; U20, micro serial dilution (in brackets), about 18 hours, 30° C. or 37° C.): 40 µg/mL (≈ 120 µM); MIC (Dipl.pneum. L 54; [2]): 0.13 µg/mL (≈ 0.389 µM)

Question: How did the MIC (Pseud.aerug. H 10; 18 h) turn out when `CC1(C)S[C@@H]2[C@H](NC(=O)COc3ccccc3)C(=O)N2[C@H]1C(=O)O` [Penicillin V] was run?
Answer: Its MIC is over 100 µg/mL.

Question: And the MIC (Past.multo. A 723; 18 h)?
Answer: The MIC was 0.75 µg/mL (≈ 2.14 µM).

Question: And the MIC (Strep.haem. A 266; 18 h)?
Answer: Its MIC is 0.2 µg/mL (≈ 0.571 µM).

Question: What about the MIC (Shig.equir. T 3) of the same molecule?
Answer: Its MIC is 5 µg/mL (≈ 14.3 µM).

Question: What about the MIC (Bac.Subt.ATCC 6633; ATCC6633, 18 h) of the same molecule?
Answer: The MIC was 0.002 µg/mL (≈ 0.00571 µM).

Question: What about the MIC (Bruc.melit. A 488) of the same molecule?
Answer: The MIC was 1 µg/mL (≈ 2.85 µM).

Question: And the MIC (Kleb.pneum. A 809; 18 h)?
Answer: Its MIC is 100 µg/mL (≈ 285 µM).

Question: And the MIC (Staph.aureus A 355; A355, 18 h)?
Answer: The MIC was 25 µg/mL (≈ 71.3 µM).

Question: What about the MIC (Prot.morg. 2241; 18 h) of the same molecule?
Answer: The MIC was over 100 µg/mL.

Question: What about the MIC (Pseud.aerug. 2396; 18 h) of the same molecule?
Answer: Its MIC is 100 µg/mL (≈ 285 µM).

Question: And the MIC (Strep. faec. L 80; 18 h)?
Answer: The MIC was 5 µg/mL (≈ 14.3 µM).

Question: And the MIC (Prot.mirab. L 93; 18 h)?
Answer: The MIC was 10 µg/mL (≈ 28.5 µM).

Question: And the MIC (Salm.dubl. P 43; 18 h)?
Answer: Its MIC is over 100 µg/mL.

Question: What about the MIC (Haem.infl. A 1030) of the same molecule?
Answer: Its MIC is 1 µg/mL (≈ 2.85 µM).

Question: And the MIC (Staph.aureus A 321; A321, 18 h)?
Answer: Its MIC is 0.045 µg/mL (≈ 0.128 µM).

Question: And the MIC (Prot.mirab. H 3; 18 h)?
Answer: The MIC was 100 µg/mL (≈ 285 µM).

Question: What about the MIC ([1]; 18 h) of the same molecule?
Answer: Its MIC is over 100 µg/mL.

Question: What about the MIC (Prot.rettg. A 821; 18 h) of the same molecule?
Answer: The MIC was 100 µg/mL (≈ 285 µM).

Question: What about the MIC (Esch.coli U 20; U20, 18 h) of the same molecule?
Answer: The MIC was 100 µg/mL (≈ 285 µM).

Question: And the MIC (Dipl.pneum. L 54; 18 h)?
Answer: The MIC was 1 µg/mL (≈ 2.85 µM).
